Experimental findings from a melting point compilation (Tetko et al.; mined from patent text by program, amines drawn as free bases though some values may be those of a salt) are described below.

Where only a bound is given, the exact number is not on record here.

Turning to `CCc1nc2c(C)cc(C)nc2n1Cc1ccc(Nc2ccccc2)cc1`, the melting point was in the range of 151 to 152 °C. The value for `N#CC1(c2ccccc2)CCC(O)CC1` (stereo not given) was 103 to 111 °C; that for `CCCCCCC(C(=O)N1CCCC1CC(=O)O)n1cnc2cc(-c3ccccc3-c3nn[nH]n3)ccc21` (stereo not given) was 122 to 125 °C; that for `CCOC(=O)C(C#N)=Cc1cc(OC)c(C(=O)OC)c(OC)c1` was 142 to 144 °C. The value for `Cc1oc(-c2ccc(C(F)(F)F)cc2)nc1COc1cccc(C=CC(C)n2oc(=O)[nH]c2=O)c1` (stereo not given) was 104 to 105 °C; that for `O=c1cc(C(F)(F)F)nc[nH]1` was 157 °C.

On to `O=C1NC(=O)C(Cc2ccccc2)N1` (stereo not given), for which the melting point was 187 to 189 °C. The value for `Cc1ccc(CSC[C@H](NC(=O)[C@H](C)CSC(=O)c2ccccc2)C(=O)O)cc1` was 115 to 126 °C. The result for `COc1ccc(C(=O)OCc2ccc(C=O)cc2)cc1C(C)(C)C` reads 75 to 76 °C. For `Cc1ccnc2c1C(=O)CC(c1cc(Cl)sc1Cl)C2` (stereo not given), the melting point is 130 to 131 °C. The value for `c1cc(C2=NOC(C3CC3)(N3CCCC3)C2)ccn1` (stereo not given) was 80 to 85 °C; that for `CCOCc1nc2c(N)nc3cccnc3c2n1C1(OC)CCCCC1` was 160 to 161 °C.

`CCN(CC)C(=O)n1ccc(Sc2cccc(C)c2)n1`: the melting point was in the range of 96 to 98 °C. The value for `CC1(C)C(C=CC(=O)OC2CC2)C1C(=O)OC(C#N)c1cccc(Oc2ccccc2)c1` (stereo not given) was 62 °C; that for `CCn1cc(C(=O)O)c(=O)c2cc(Br)c(N3CCOCC3)cc21` was 266 °C; that for `CC(=O)Nc1ccc(SC(CCc2ccc(Cl)cc2)Cn2ccnc2)cc1` (stereo not given) was 166 °C.

Regarding `CC(C)(C)C(=O)c1ccc(C(=O)NC(=O)c2ccc(F)cc2)cc1`, the melting point is 100 to 101 °C. The value for `COc1ccc2[nH]ncc2c1Br` was 178 to 180 °C; that for `CCNc1c(OC)cc(C(O)CS(C)(=O)=O)cc1OC` (stereo not given) was 121 to 122 °C; that for `NC1=NCC(COc2cccc(Cl)c2)O1` (stereo not given) was 128 °C.

As for `BrCc1ccc2nc(-c3ccccc3)c(-c3ccccc3)nc2c1`, the melting point fell in the range of 146 to 148 °C. As to `Cc1cccc(Oc2c[nH]c(=O)[nH]c2=O)c1`, the melting point is 291 to 295 °C.

The compound `CC(C)(C)c1nnc(N)n(N)c1=O` returned a melting point of 223 to 224 °C. Consider `CC(C)(C(=O)O)c1ccc(OCc2ccccc2)cc1`, for which the melting point lay within 128 to 130 °C. The result for `COc1cc(CN2CCN(C(=S)C3(C)CCc4c(C)c(O)c(C)c(C)c4O3)CC2)cc(OC)c1OC` (stereo not given) reads 82 °C.

`COC(=O)c1cn(Cc2ccccc2)c2ccc(C3CCCCC3)cc2c1=O` showed a melting point of 211 to 213 °C.

With `Nc1cc(CNc2ccccc2C(=O)Nc2cccc(C(F)(F)F)c2)ccn1`, the melting point amounted to 64 °C. The result for `COc1ccc(OC2COc3ccc(OCc4cc(OC)ccn4)cc3C2O)cc1` (stereo not given) reads 80 to 82 °C; that for `Cc1ccc(F)c(NS(=O)(=O)c2n[nH]c(NC=O)n2)c1F`, 270 to 273 °C.

In the case of `O=C(COc1ccccc1)NCCO[N+](=O)[O-]`, the melting point is 61 to 62 °C. The compound `Cn1cnc(-c2ccc(NC(=C3C(=O)Oc4ccccc43)c3ccc(C(C)(C)N)cc3)cc2)c1` displayed a melting point greater than 280 °C. The value for `CCCOc1ccc(S(=O)(=O)Nc2ccc3[nH]ncc3c2)cc1-c1nc2cc(Cl)c([N+](=O)[O-])cc2c(=O)[nH]1` was 261 to 263 °C; that for `COc1ccc(C2CCOCC2)cc1N` was 102 to 103 °C.

`S=c1[nH]nnn1CCN1CCOCC1` showed a melting point of 226 to 228 °C.

In turn, `CCOC(=O)c1cnc2cc3c(cc2c1O)OCO3` returned a melting point greater than 290 °C. The value for `CS(=O)(=O)c1ccc(-c2cnn(-c3ccc(C#N)cc3)c(=O)c2-c2ccc(F)cc2)cc1` was 273 to 278 °C; that for `COc1ccc2c(c1)Cc1nnc(OC)n1C=C2` was 176 to 177 °C; that for `COC(=O)C(C)(C)Oc1ccc(C(C)=O)cc1` was 62 to 63 °C. Regarding `CCc1ccc2ccc(N)nc2n1`, the melting point is 170 to 172 °C.

`CCCN1C(=O)CC2CCC(C)C3CCC4(C)OOC23C1O4` (single isomer, unassigned; (-)) registered a melting point of 125 to 126 °C. Regarding `N#Cc1ccccc1Oc1ccc(-c2cn(C3CCOC3)c3ncnc(N)c23)cc1` (stereo not given), the melting point is 201 to 203 °C.

Compound `O=[N+]([O-])c1ccc(-n2nc(-c3ccccc3O)nc2-c2ccccc2O)cc1` registered a melting point of 180 to 183 °C. `CCc1cccc(NC(=O)NC2CC(C3CCCCC3)c3ccccc3N(CC(=O)NC(C)(C)C)C2=O)c1` (stereo not given) showed a melting point of 145 to 155 °C.

Compound `N=C(NO)c1ccc(-c2ccc([N+](=O)[O-])c(C(F)(F)F)c2)o1` showed a melting point of 221 °C. The value for `O=C(O)c1cnc2sccc2c1Cl` was 172 to 174 °C; that for `CC(CCCC(C)(C)O)C1CCC2C3CC=C4CCCC(O)C4(C)C3CCC12C` (stereo not given) was 127 to 128 °C; that for `Cc1c(NC(=O)CC(C)(C)C)c(C)c2c(c1-c1cccc(N)c1)OCC2c1ccc(C(C)C)cc1` (stereo not given) was 170 to 172 °C. The result for `CCOC(=O)[C@H](CC(C)C)NC(=O)C[C@@H]1CN(CC(C)(C)CO)c2ccc(Cl)cc2[C@@H](c2cccc(OC)c2OC)O1` reads 148 to 149 °C. The result for `COC(=O)c1cc(-c2cccc(C(=O)O)c2)c2cc(Cc3ccc(F)cc3)cnc2c1O` reads 265 to 267 °C. `Fc1ccc(Oc2ccc(-c3c[nH]cn3)cc2)cc1` had a melting point of 165 to 168 °C.

`COC(=O)c1ccc(F)c2c1OCC=C2` had a melting point of 65 to 67 °C.

`CC(=NOC(C)C)c1ccc2c(c1)ncn2-c1cccc(-c2cccnc2)c1` showed a melting point of 77 to 80 °C. `Nc1ccc(Oc2cccc3c(Oc4ccc(N)c(O)c4)cccc23)cc1O` had a melting point of 251 to 253 °C. For `CCn1c(=O)c2c(N)n[nH]c2n(CC)c1=O`, the melting point is 246 to 248 °C. The result for `CC1(C)CC(=O)Nc2cc3nc(-c4ccc(CO)cc4)[nH]c3cc21` reads 214 to 232 °C.

`CCOC(=O)c1cc2c(OCc3ccccc3)cc(C)cc2[nH]1` displayed a melting point of 167 to 168 °C.

Take `Cc1ccc2c(c1)c(=O)c1c(cnn1C)n2CC#N`: the melting point fell in the range of 214 to 219 °C. The value for `CC(=O)OC1CSC(Oc2cncc(-c3ccc(C)c(F)c3)c2)C(OC(C)=O)C1OC(C)=O` (stereo not given) was 159 °C; that for `CCCN(C)CCCCC1CCN(S(=O)(=O)c2ccc(C(F)(F)F)cc2)CC1` was 73 to 74.8 °C; that for `O=C(Nc1ccccc1)OCC1(COC(=O)Nc2ccccc2)CS(=O)c2ccccc2C1=O` (stereo not given) was 220 to 222 °C. The value for `CCOC(=O)COc1cc(F)ccc1C(=O)NCc1cccc([N+](=O)[O-])c1` was 78 to 80 °C; that for `COc1ccc2c(c1OC)CCCC(C(=O)O)=C2` was 208 to 209 °C.

Take `ON=C1CCC(O)(c2ccccc2Cc2ccccc2)CC1` (stereo not given): the melting point lay within 137 to 138 °C. The result for `Oc1cc(Oc2ncc(C(F)(F)F)cc2Cl)ccc1Br` reads 124 to 127 °C; that for `O=C(O)[C@H]1CCCN1C(=O)Cc1ccc(CC(=O)N2CCC[C@@H]2C(=O)O)cc1`, 210 to 214 °C; that for `NC(=O)c1cc2c(SC3CCCCC3)cncc2s1`, 205 to 207 °C. `NC(=NOCC1CC1)c1c(F)cccc1C(F)(F)F`: the melting point was in the range of 63 to 64 °C.

`CC1Cc2cc3c(cc2C(c2ccc([N+](=O)[O-])cc2)=NN1c1nccs1)OCO3` (stereo not given) showed a melting point of 145 to 150 °C. The result for `CCOC(=O)CCn1c(=O)c(=O)[nH]c2cc(C(F)(F)F)c(-n3c(C)ccc3C)cc21` reads 233 to 235 °C; that for `COc1ccc(COc2ccc(C(=O)NC[C@@H](C(=O)NO)N3CCN(S(C)(=O)=O)CC3)cc2)cc1`, 148 °C; that for `CCCCCS(=O)(=O)NC(=O)CCCc1ccc(OCCOC)cc1Oc1ncc(C(F)(F)F)cc1Cl`, 96 to 97 °C. The value for `CCOC(=O)/C=C(/c1ccc(OCC)cc1)c1cc(Cl)cc(Cl)c1` was 104 to 106 °C; that for `CCc1cn(C)cc(-c2ccc(Cl)c(C(F)(F)F)c2)c1=O` was 121 to 123 °C; that for `CCCCCNC(=O)N(C)c1cccc(-c2ccc(/C=C(\OCC)C(=O)O)cc2)n1` was 162 °C. The result for `CC#CC1(C)OC(=O)Nc2ccc(-c3cccc(Cl)c3)cc21` (stereo not given) reads 184 to 185 °C. For `Cc1ccccc1CC(=NC#N)NC(NC(=O)Cc1ccc2cccnc2c1)C(C)(C)C` (stereo not given), the melting point is 165 to 166 °C. The result for `Cc1ncc([N+](=O)[O-])n1CCN1C(=O)C2CC=CCC2C1=O` (stereo not given) reads 118 to 123 °C; that for `CC/C=C\CCCCCCCCCCOc1ccc(C(C)=O)o1`, 36 to 38 °C; that for `NCc1ccc2[nH]ccc2c1`, 114 to 115 °C. The result for `Cn1cc(C2=NOCCO2)c(Cl)n1` reads 112 °C.

With `N#CC(=Cc1ccc[nH]1)c1cccnc1`, the melting point was in the range of 139 to 142 °C. The result for `O=C(O)COc1cccc2c1CCc1sc(S(=O)(=O)CC(c3ccccc3)c3ccccc3)nc1-2` reads 168 to 170 °C.

`O=C1NC(=Cc2ccccc2)C(NCc2ccccc2)=C1[N+](=O)[O-]`: the melting point amounted to 218 °C. The result for `NC(CC(=O)O)C(=O)N1C(=O)c2ccc(C(=O)O)cc2C1=O` (stereo not given) reads 242 to 243 °C; that for `Cc1cc(CNc2cccc3c2CN(C2CCC(=O)NC2=O)C3=O)oc1C` (stereo not given), 237 to 239 °C.

Regarding `O=C(O)CCCc1ccc(-c2ccccc2Br)cc1`, the melting point is 148 to 149 °C. With `CCOC(=O)c1c(-c2ccc(-c3ccccn3)cc2)n(C)n(-c2ccc(C#N)cc2)c1=O`, the melting point was in the range of 205 to 211 °C. The result for `CCOC(=O)c1c(OCC)cc(C=O)cc1OCC` reads 117 to 119 °C; that for `CN1CCN(C(=O)Cn2nc(-c3ccccc3O)nc2-c2ccccc2O)CC1`, 199 to 201 °C; that for `CCOC(=O)c1ccccc1C=C(C)C=CC=C(C)CCC=C(C)C`, 47 to 48 °C.

As usually defined, the melting point is the temperature, or range, at which the solid turns liquid.
